Measured values reported in publication PMC7889231 (Journal of Enzyme Inhibition and Medicinal Chemistry, 2021).
Where two headings read alike, the source gives them in different places.

What was measured:
[1] = system: tubulin; test: In vitro tubulin polymerisation inhibition (turbidimetric, fluorescent plate reader); assay type: biochemical; conditions: mean of three experiments
Experimental: The inhibition assay on microtubule polymerisation was evaluated turbidimetrically using a fluorescent plate reader.
The effect of the synthesised compounds on tubulin polymerisation was assessed turbidimetrically using a fluorescent plate reader method. The complete procedure was depected in Supplementary data.

[2] = system: MCF-7; test: MTT anti-proliferative assay, MCF-7; assay type: cell-based, human; conditions: Homo sapiens
[3] = system: HCT-116; test: MTT anti-proliferative assay, HCT-116; assay type: cell-based, human
[4] = system: HepG-2, HCT-116, and MCF-7; test: MTT anti-proliferative assay, ranges stated over several cell lines; assay type: cell-based; conditions: Homo sapiens
[5] = system: HepG-2; test: MTT anti-proliferative assay, HepG-2; assay type: cell-based, human
[6] = MCF7, MTT, mean ± SD of three experiments, read-out: IC50 MCF-7
[7] = Homo sapiens, HCT-116, MTT, mean ± SD of three experiments, read-out: IC50 HCT-116
[8] = range over HepG-2, HCT-116 and MCF-7 and over the listed compounds, read-out: IC50 values ranging (all tested cell lines)
[9] = Homo sapiens, HepG2, MTT, mean ± SD of three experiments, read-out: IC50 HepG-2
[10] = MTT, mean ± SD of three experiments, read-out: IC50 HCT-116
[11] = MTT, mean ± SD of three experiments, read-out: IC50 HepG-2
[12] = range over HCT-116 and MCF-7 and over the listed compounds, read-out: IC50 values ranging (HCT-116 and MCF-7)

IC50 [2, 6] | IC50 [3, 7] | melting point | IC50 [4, 8] | SMILES | IC50 [5, 9] | other results
32.2 ± 2 µM | 28.9 ± 1.7 µM | 135 to 136 °C | 22.4 to 45.5 µM | COc1ccc2nc(Cl)c(/C=C/C(=O)c3ccc(Cl)cc3)cc2c1 [Compound 5, (E)-3–(2-Chloro-6-methoxyquinolin-3-yl)-1–(4-chlorophenyl)prop-2-en-1-one] | 29.2 ± 1.9 µM | –
37.3 ± 2.1 µM | 28.6 ± 1.7 µM | 120 to 121 °C | 22.4 to 45.5 µM | COc1ccc2nc(Cl)c(/C=C/C(=O)c3ccc(N)cc3)cc2c1 [Compound 6, (E)-1–(4-Aminophenyl)-3–(2-chloro-6-methoxyquinolin-3-yl)prop-2-en-1-one] | 32.9 ± 2.1 µM | –
16.9 ± 1.2 µM | 25.1 ± 1.2 µM | 127 to 128 °C | – | COc1ccc2nc(Cl)c(/C=C/C(=O)c3cc(OC)c(OC)c(OC)c3)cc2c1 [Compound 7, (E)-3–(2-Chloro-6-methoxyquinolin-3-yl)-1–(3,4,5-trimethoxyphenyl)prop-2-en-1-one] | 23.6 ± 1.3 µM | –
33.5 ± 2.4 µM | 22.4 ± 1.1 µM | 118 to 119 °C | 22.4 to 45.5 µM | COc1ccc2nc(Cl)c(C3CC(c4ccc(Cl)cc4)=NN3)cc2c1 (stereo not shown) [Compound 8, 2-Chloro-3-[3–(4-chlorophenyl)-4,5-dihydro-1H-pyrazol-5-yl]-6-methoxyquinoline] | 30.9 ± 1.2 µM | –
20.5 ± 1.1 µM | 16.6 µM | 122 to 123 °C | – | COc1ccc2nc(Cl)c(C3CC(c4ccc(N)cc4)=NN3)cc2c1 (stereo not shown) [Compound 9, 4-[5–(2-Chloro-6-methoxyquinolin-3-yl)-4,5-dihydro-1H-pyrazol-3-yl]aniline] | 17.4 µM | IC50 [3, 10]: 17.4 ± 1 µM; IC50 [5, 11]: 16.6 ± 0.8 µM
25.1 ± 1.2 µM | 15.4 µM | 114 to 115 °C | – | COc1ccc2nc(Cl)c(C3CC(c4cc(OC)c(OC)c(OC)c4)=NN3)cc2c1 (stereo not shown) [Compound 10, 2-Chloro-6-methoxy-3-[3–(3,4,5-trimethoxyphenyl)-4,5-dihydro-1H-pyrazol-5-yl]quinoline] | 17.4 µM | IC50 [3, 10]: 17.4 ± 1.1 µM; IC50 [5, 11]: 15.4 ± 0.9 µM
22.8 ± 1.4 µM | 19.7 ± 1.3 µM | 145 to 146 °C | – | COc1ccc2nc(Cl)c(C3CC(c4ccc(Cl)cc4)=NO3)cc2c1 (stereo not shown) [Compound 11, 5–(2-Chloro-6-methoxyquinolin-3-yl)-3–(4-chlorophenyl)-4,5-dihydroisoxazole] | 20.5 ± 1 µM | –
45.5 ± 2.8 µM | 40.5 ± 2.4 µM | 127 to 128 °C | 22.4 to 45.5 µM | COc1ccc2nc(Cl)c(C3CC(c4ccc(N)cc4)=NO3)cc2c1 (stereo not shown) [Compound 12, 4-[5–(2-Chloro-6-methoxyquinolin-3-yl)-4,5-dihydroisoxazol-3-yl]aniline] | 35.4 ± 1.8 µM | –
17 ± 1.2 µM | 12.9 µM | 133 to 134 °C | – | COc1ccc2nc(Cl)c(C3CC(c4cc(OC)c(OC)c(OC)c4)=NO3)cc2c1 (stereo not shown) [Compound 13, 5–(2-Chloro-6-methoxyquinolin-3-yl)-3–(3,4,5-trimethoxyphenyl)-4,5-dihydroisoxazole] | 9.96 µM | IC50 [3, 10]: 9.96 ± 0.3 µM; IC50 [5, 11]: 12.9 ± 0.6 µM
10 ± 0.4 µM | 7.62 ± 0.4 µM | 136 to 137 °C | – | COc1ccc2nc(Cl)c(C3CC(c4ccc(Cl)cc4)=NN3C(N)=S)cc2c1 (stereo not shown) [Compound 14, 5–(2-Chloro-6-methoxyquinolin-3-yl)-3–(4-chlorophenyl)-4,5-dihydro-1H-pyrazole-1-carbothioamide] | 8.92 ± 0.4 µM | IC50 [1]: 0.0501 µM; IC50 [4, 12]: 6.48 to 10.3 µM
13.6 ± 0.7 µM | 11.6 ± 0.9 µM | 123 to 124 °C | 10.2 to 17.6 µM | COc1ccc2nc(Cl)c(C3CC(c4ccc(N)cc4)=NN3C(N)=S)cc2c1 (stereo not shown) [Compound 15, 3–(4-Aminophenyl)-5–(2-chloro-6-methoxyquinolin-3-yl)-4,5-dihydro-1H-pyrazole-1-carbothioamide] | 10.2 ± 0.4 µM | –
13.9 ± 0.3 µM | 9.3 µM | 121 to 122 °C | – | COc1ccc2nc(Cl)c(C3CC(c4cc(OC)c(OC)c(OC)c4)=NN3C(N)=S)cc2c1 (stereo not shown) [Compound 16, 5–(2-Chloro-6-methoxyquinolin-3-yl)-3–(3,4,5-trimethoxyphenyl)-4,5-dihydro-1H-pyrazole-1-carbothioamide] | 8.87 µM | IC50 [3, 10]: 8.87 ± 0.3 µM; IC50 [5, 11]: 9.3 ± 0.3 µM
15.9 ± 0.6 µM | 11.4 ± 0.4 µM | 135 to 136 °C | 10.2 to 17.6 µM | COc1ccc2nc(Cl)c(C3CC(c4ccc(Cl)cc4)=NN3C(N)=O)cc2c1 (stereo not shown) [Compound 17, 5–(2-Chloro-6-methoxyquinolin-3-yl)-3–(4-chlorophenyl)-4,5-dihydro-1H-pyrazole-1-carboxamide] | 12.7 ± 0.5 µM | –
13.7 ± 0.8 µM | 10.4 ± 0.3 µM | 130 to 131 °C | 10.2 to 17.6 µM | COc1ccc2nc(Cl)c(C3CC(c4ccc(N)cc4)=NN3C(N)=O)cc2c1 (stereo not shown) [Compound 18, 3–(4-Aminophenyl)-5–(2-chloro-6-methoxyquinolin-3-yl)-4,5-dihydro-1H-pyrazole-1-carboxamide] | 10.2 ± 0.4 µM | –
9.04 ± 0.5 µM | 7.38 ± 0.4 µM | 117 to 118 °C | – | COc1ccc2nc(Cl)c(C3CC(c4cc(OC)c(OC)c(OC)c4)=NN3C(N)=O)cc2c1 (stereo not shown) [Compound 19, 5–(2-Chloro-6-methoxyquinolin-3-yl)-3–(3,4,5-trimethoxyphenyl)-4,5-dihydro-1H-pyrazole-1-carboxamide] | 10.9 ± 0.5 µM | IC50 [4, 12]: 6.48 to 10.3 µM
4.51 ± 0.2 µM | 1.81 ± 0.1 µM | 145 to 146 °C | 1.78 to 9.19 µM | COc1ccc2nc(Cl)c(C3CC(c4ccc(Cl)cc4)=NN3c3ccccc3)cc2c1 (stereo not shown) [Compound 20, 2-Chloro-3-[3–(4-chlorophenyl)-1-phenyl-4,5-dihydro-1H-pyrazol-5-yl]-6-methoxyquinoline] | 2.6 ± 0.1 µM | times of colchicine cytotoxic activity, HCT-116 ([3]; ratio of IC50 to colchicine): 2.84 times; IC50 [1]: 0.0368 µM; times of colchicine cytotoxic activity, HepG-2 ([5]; ratio of IC50 to colchicine): 5.15 times
9.19 ± 0.3 µM | 8.91 ± 0.3 µM | 136 to 137 °C | 1.78 to 9.19 µM | COc1ccc2nc(Cl)c(C3CC(c4ccc(N)cc4)=NN3c3ccccc3)cc2c1 (stereo not shown) [Compound 21, 4-[5–(2-Chloro-6-methoxyquinolin-3-yl)-1-phenyl-4,5-dihydro-1H-pyrazol-3-yl]aniline] | 7.32 ± 0.2 µM | IC50 [1]: 0.00911 µM
6.45 ± 0.2 µM | 3.04 ± 0.3 µM | 136 to 137 °C | 1.78 to 9.19 µM | COc1ccc2nc(Cl)c(C3CC(c4cc(OC)c(OC)c(OC)c4)=NN3c3ccccc3)cc2c1 (stereo not shown) [Compound 22, 2-Chloro-6-methoxy-3-[1-phenyl-3–(3,4,5-trimethoxyphenyl)-4,5-dihydro-1H-pyrazol-5-yl]quinoline] | 4.76 ± 0.2 µM | IC50 [1]: 0.0191 µM
24.3 ± 0.9 µM | 22.4 ± 0.5 µM | 146 to 147 °C | – | COc1ccc2nc(Cl)c(-c3cc(-c4ccc(N)cc4)nc(=S)[nH]3)cc2c1 [Compound 27, 4–(4-Aminophenyl)-6–(2-chloro-6-methoxyquinolin-3-yl)pyrimidine-2(1H)-thione] | 16.3 ± 0.4 µM | –
17.6 ± 0.8 µM | 13 ± 0.6 µM | 195 to 196 °C | 10.2 to 17.6 µM | COc1ccc2nc(Cl)c(-c3cc(-c4ccc(Cl)cc4)nc(N)n3)cc2c1 [Compound 29, 4–(2-Chloro-6-methoxyquinolin-3-yl)-6–(4-chlorophenyl)pyrimidin-2-amine] | 16.5 ± 0.8 µM | –
33.8 ± 1.5 µM | 32.7 ± 0.9 µM | 175 to 176 °C | 22.4 to 45.5 µM | COc1ccc2nc(Cl)c(-c3cc(-c4ccc(N)cc4)nc(N)n3)cc2c1 [Compound 30, 4–(4-Aminophenyl)-6–(2-chloro-6-methoxyquinolin-3-yl)pyrimidin-2-amine] | 28.5 ± 1.3 µM | –
15.2 ± 0.7 µM | 10.5 ± 0.4 µM | 162 to 163 °C | – | COc1ccc2nc(Cl)c(-c3cc(-c4cc(OC)c(OC)c(OC)c4)nc(N)n3)cc2c1 [Compound 31, 4–(2-Chloro-6-methoxyquinolin-3-yl)-6–(3,4,5-trimethoxyphenyl)pyrimidin-2-amine] | 9.45 ± 0.5 µM | –
15.4 ± 0.8 µM | 11.9 ± 0.4 µM | 176 to 177 °C | 10.2 to 17.6 µM | COc1ccc2nc(Cl)c(-c3cc(-c4cc(OC)c(OC)c(OC)c4)nc(=O)[nH]3)cc2c1 [Compound 34, 6–(2-Chloro-6-methoxyquinolin-3-yl)-4–(3,4,5-trimethoxyphenyl)pyrimidin-2(1H)-one] | 15.3 ± 0.4 µM | –

SMILES | IC50 [2, 6] | IC50 [3, 7] | melting point | IC50 [4, 8] | IC50 [5, 9] | other results
COc1ccc2nc(Cl)c(C3CC(c4ccc(Cl)cc4)=NN3c3ccc([N+](=O)[O-])cc3[N+](=O)[O-])cc2c1 (stereo not shown) [Compound 23, 2-Chloro-3-[3–(4-chlorophenyl)-1–(2,4-dinitrophenyl)-4,5-dihydro-1H-pyrazol-5-yl]-6-methoxyquinoline] | – | – | 143 to 144 °C | – | – | IC50 ([2]; MCF7, read-out: IC50 MCF-7): 4.48 ± 0.1 µM; IC50 ([3]; Homo sapiens, HCT-116, read-out: IC50 HCT-116): 1.78 ± 0.1 µM; IC50 ([4]; read-out: IC50 values ranging (all tested cell lines)): 1.78 to 9.19 µM; IC50 ([5]; Homo sapiens, HepG2, read-out: IC50 HepG-2): 2.64 ± 0.1 µM
